The record followed here is patent publication US20170100320A1, “COMPOSITION FOR EXTERNAL USE SKIN PREPARATION, CONTAINING THIOREDOXIN” (Amorepacific Corporation, priority 2012, published 2017).

Common to all, as to format: cell-based
Data set [1] has as its target T1, 5α-reductase in HEK293-5αR2 cells (Homo sapiens, UniProt P31213).
T1 construct: 3xFLAG; expressed in transfected cells; host or cells: HEK293 (Human Embryonic Kidney 293)
T1 sequence (P31213 1-254): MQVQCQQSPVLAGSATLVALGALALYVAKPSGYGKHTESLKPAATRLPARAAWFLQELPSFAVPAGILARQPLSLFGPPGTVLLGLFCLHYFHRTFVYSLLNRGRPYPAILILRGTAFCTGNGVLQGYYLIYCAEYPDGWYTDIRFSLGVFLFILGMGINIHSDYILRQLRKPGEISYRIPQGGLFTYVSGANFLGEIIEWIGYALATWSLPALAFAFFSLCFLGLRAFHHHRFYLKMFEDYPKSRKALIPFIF
Nature of the data set: Inhibition of 5α-reductase activity ([14C]testosterone to [14C]dihydrotestosterone conversion). To be noted: 2 hours incubation at 37° C.; for Conversion (%): testosterone to DHT. On the procedure: In order to examine the effect of inhibiting 5α-reductase activity, the ratio of [^14C]testosterone-to-[^14C]dihydrotestosteron conversion in Human Embryonic Kidney 293(HEK293)-5αR2 cells was measured. HEK293 cells transfected with plasmid p3×FLAG-CMV™-5αR2 were added to a 24-well plate at a density of 2.5×10^5cells/well and cultured (Park et al., 2003, J. Dermatological Science. Vol. 31, pp. 91-98). The next day, the medium was replaced with a fresh medium containing an enzyme substrate and an inhibitor. As the substrate of the medium, 0.05 μCi [^14C]testosterone (Amersham Pharmacia Biotech, UK) was used.
In order to measure the degree of inhibition of 5α-reductase activity, thioredoxin was added to the cells which were then incubated in a 5% CO2 incubator at 37° C. for 2 hours. At the same time, a medium containing no thioredoxin was used as a negative, and a medium containing finasteride was used as a positive control. Next, the culture medium was collected, and steroid was extracted with 800 μl of ethyl acetate. The upper organic solvent layer was separated and dried, and the remaining material was dissolved in 50 μl of ethyl acetate and developed on silica plastic sheet kieselgel 60 F254 using ethyl acetate-hexane (1:1) as a developing solvent.
The plastic sample was dried in air, and the amount of isotopes was measured using a Vas system. Specifically, the dried plastic sheet together with an X-ray film was placed in a Vas cassette, and after 1 week, the amounts of the testosterone and dihydrotestosterone (DHT) isotopes were measured, and then the percent conversion and the percent inhibition were measured using the following equations 1 and 2, respectively.
Conversion (%)=radioactivity in the DHT region/total radioactivity×100
Inhibition (%)=(conversion of control−conversion of sample)/conversion of control×100

The next data set has as its system fibroblasts. Nature of the data set: Stimulation of collagen biosynthesis (procollagen type (I) ELISA). To be noted: 24 hours; relative to control = 100%; TGF-beta 10 ng/ml. On the procedure:
The effect of thioredoxin of the present invention on the stimulation of collagen biosynthesis was measured in comparison with TGF-beta.
First, fibroblasts were seeded into a 24-well plate at a density of 10^5cells/well and cultured in serum-free DMEM medium for 24 hours to a confluence of about 90%. Then, the cells were treated with each of a solution of thioredoxin of the present invention and 10 ng/ml of TGF-beta dissolved in serum-free medium and incubated in a CO2 incubator for 24 hours. The supernatants of the cell cultures were collected and the amount of procollagen therein was measured using a procollagen type (I) ELISA kit. The values of collagen synthesis (%) in Table 8 are expressed as percentages relative to the control taken as 100%.

Another data set has as its system human keratinocytes. The experiment in a line: Stimulation of keratinocyte differentiation (cornified envelope protein, absorbance 340 nm). The settings on record: 5 days culture; thioredoxin 5 ppm; low-calcium negative control = 100. As for the experimental part:
In order to examine the effect of thioredoxin on the stimulation of differentiation of keratinocytes, the amount of cornified envelope (CE) protein produced during the differentiation of keratinocytes was measured by absorbance in the following manner.
Specifically, human keratinocytes, isolated from the […] of newborns and primarily cultured, were placed in a culture flask and attached to the bottom. Then, the cells were cultured with a medium containing 5 ppm of thioredoxin for 5 days until the cells reached to a confluence of about 70-80%. At the same time, a low calcium (0.03 mM)-treated group and a high calcium (1.2 mM)-treated group were used as a negative control group and a positive control group, respectively. Then, the cultured cells were harvested and washed with PBS (phosphate buffered saline). Then, the cells were sonicated in 1 ml of 10 mM Tris-HCl (pH 7.4) containing 2% SDS (sodium dodecyl sulfate) and 20 mM DTT (dithiothreitol), boiled and centrifuged. The precipitate was suspended in 1 ml of PBS, and the absorbance at 340 nm was measured. Separately, a portion of the solution following the sonication was taken, and the protein content thereof was measured as a reference for evaluating the degree of differentiation of the cells.

As to `CC(C)(C)NC(=O)[C@H]1CC[C@H]2[C@@H]3CC[C@H]4NC(=O)C=C[C@]4(C)[C@H]3CC[C@]12C` [Positive control, finasteride, reference compound], the “Conversion (%)” value in data set [1] turned out to be 27.6%.

As to TGF-β [reference compound], the “Collagen synthesis (%)” value in the data set on fibroblasts amounted to 183.5%.

Regarding Thioredoxin, in the data set with human keratinocytes, the “Degree (%) of differentiation of keratinocytes” value was found to be 295%. Further, the “Collagen synthesis (%)” value in the data set with fibroblasts is 196.2%. Further, the “Inhibition (%)” value in data set [1] (relative to conversion of control) amounted to 60.8%. In addition, the “Conversion (%)” value in data set [1] is given as 15.9%.
